Results on 3 compounds are retold here after patent publication EP0572365A2, “Heteroprostanoids, process for their production and therapeutical use thereof” (NUOVO CONSORZIO SANITARIO NAZIONALE del Dott. Paolo Malizia …, priority 1992, dated 1993).

A short description of the data set: Stability assay: storage of buffered water solutions, residual activity measured in the thrombocyte aggregation assay. The class given is physicochemical. The following applies: room temperature, water solution buffered at pH 7. An excerpt:
The stability of some compounds according to the present invention has been compared with that of a natural prostaglandine through storage at room temperature of water solutions buffered at pH 7, by measuring the residual activity in the assay of thrombocyte aggregation at different times; the results, listed in Table III, show a much greater stability: […]

The structures appear in SMILES notation.

On to `CCCCC(=O)NCC(=O)N1CCC[C@H]1C(=O)OCCCCC(=O)O` [III (X₂R₄=CH₂, R₂=R₆=CO, R=H, n=4, m=3), L-7,13,16-trioxo-12,15-diaza-6-oxa-prostanoic], for which the “residual activity in the assay of thrombocyte aggregation” value (shortened to “residual activity in the assay”) by setting is: (7 gg) 7 gg: 15; (1h) 1h: 100; (12h) 12h: 92; (24h) 24h: 80.

For `CCCCCNC(=O)CN1CCC[C@H]1C(=O)OCCCCC(=O)O` [III (X₂=R₂=R₆=CH₂, R₄=CO, R=H, n=4, m=3), L-7-14-dioxo-12,15-diaza-6-oxa-prostanoic acid], the “residual activity in the assay” value reads like this: (7 gg) 7 gg: 4; (1h) 1h: 98; (12h) 12h: 78; (24h) 24h: 62.

Regarding `CCCCC[C@H](O)/C=C/[C@H]1[C@H](O)CC(=O)[C@@H]1CCCCCCC(=O)O` [PGE₁, Alprostadil, reference compound], the “residual activity in the assay” value runs as follows: (7 gg) 7 gg: 0; (1h) 1h: 30; (12h) 12h: 2; (24h) 24h: 0.
